Data: PubChem BioAssay AID256 (DTP/NCI, 2004)
Several values for one entry are separate records, joined by “and”; a condition that tells them apart may be missing. Equal values may be shown once. Inconclusive results and toxic doses are left out. How the source made its calls: active means survival T/C of 150% or more; inactive means T/C below 125% in these data.

Tested on: CD2F1 mice, L1210 leukemia ip, survival T/C
Experiment: NCI In Vivo Anticancer Drug Screen. Data for tumor model L1210 Leukemia (intraperitoneal) in CD2F1 (CDF1) mice
Details: higher = longer survival
Summary of the method: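 Antitumor effect is scored in animals hosting a serially transplanted tumor. Values compare compound-dosed animals against vehicle-only controls as a simple quotient.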

[1] = endpoint: mean survival time, dose: 100.0 mg/kg/injection, schedule: Q04DX003 (ip), vehicle: saline with Tween-80
[2] = endpoint: mean survival time, dose: 200.0 mg/kg/injection, schedule: Q04DX003 (ip), vehicle: saline with Tween-80
[3] = endpoint: mean survival time, dose: 50.0 mg/kg/injection, schedule: Q01DX009 (ip), vehicle: saline with Tween-80
[4] = endpoint: mean survival time, dose: 100.0 mg/kg/injection, schedule: Q01DX009 (ip), vehicle: saline with Tween-80
[5] = endpoint: mean survival time, dose: 50.0 mg/kg/injection, schedule: Q04DX003 (ip), vehicle: saline
[6] = endpoint: mean survival time, dose: 100.0 mg/kg/injection, schedule: Q04DX003 (ip), vehicle: saline
[7] = endpoint: mean survival time, dose: 200.0 mg/kg/injection, schedule: Q04DX003 (ip), vehicle: saline
[8] = endpoint: mean survival time, dose: 100.0 mg/kg/injection, schedule: Q04DX002 (ip), vehicle: saline with Tween-80
[9] = endpoint: mean survival time, dose: 400.0 mg/kg/injection, schedule: Q04DX003 (ip), vehicle: saline with Tween-80
[10] = endpoint: mean survival time, dose: 400.0 mg/kg/injection, schedule: Q04DX003 (ip), vehicle: saline
[11] = endpoint: mean survival time, dose: 12.5 mg/kg/injection, schedule: Q04DX002 (ip), vehicle: saline
[12] = endpoint: mean survival time, dose: 25.0 mg/kg/injection, schedule: Q04DX002 (ip), vehicle: saline

Measured: T/C

CNC(=O)N(C)c1ccccc1
inactive: endpoint: mean survival time, dose: 100.0 mg/kg/injection, schedule: Q04DX002 (ip), vehicle: saline 101 % of control | endpoint: mean survival time, dose: 200.0 mg/kg/injection, schedule: Q04DX002 (ip), vehicle: saline 101 % of control | endpoint: mean survival time, dose: 400.0 mg/kg/injection, schedule: Q04DX002 (ip), vehicle: saline 101 % of control

O=C1C=C(Cl)C(=O)N1c1cccc(Cl)c1
inactive: endpoint: mean survival time, dose: 6.25 mg/kg/injection, schedule: Q04DX003 (ip), vehicle: saline with Tween-80 104 % of control | endpoint: mean survival time, dose: 12.5 mg/kg/injection, schedule: Q04DX003 (ip), vehicle: saline with Tween-80 95 % of control | endpoint: mean survival time, dose: 25.0 mg/kg/injection, schedule: Q04DX003 (ip), vehicle: saline with Tween-80 95 % of control

C#CC[N+](CC)(CC)CCNC(=O)CCCCCCCCCCCCCCC
inactive: endpoint: mean survival time, dose: 75.0 mg/kg/injection, schedule: Q01DX001 (ip), vehicle: saline 102 % of control

CC1=C[S+](c2ccccc2)c2cccc3cc4ccccc4c1c23 (stereo unspecified)
inactive: endpoint: mean survival time, dose: 5.0 mg/kg/injection, schedule: Q01DX001 (ip), vehicle: saline with Tween-80 111 % of control | endpoint: mean survival time, dose: 10.0 mg/kg/injection, schedule: Q01DX001 (ip), vehicle: saline with Tween-80 106 % of control | endpoint: median survival time, dose: 0.06 mg/kg/injection, schedule: Q01DX009 (ip), vehicle: saline with Tween-80 105 % of control | endpoint: median survival time, dose: 0.12 mg/kg/injection, schedule: Q01DX009 (ip), vehicle: saline with Tween-80 105 % of control | endpoint: median survival time, dose: 0.25 mg/kg/injection, schedule: Q01DX009 (ip), vehicle: saline with Tween-80 107 % of control | endpoint: median survival time, dose: 0.5 mg/kg/injection, schedule: Q01DX009 (ip), vehicle: saline with Tween-80 109 % of control | endpoint: median survival time, dose: 1.0 mg/kg/injection, schedule: Q01DX009 (ip), vehicle: saline with Tween-80 109 % of control | endpoint: median survival time, dose: 2.0 mg/kg/injection, schedule: Q01DX009 (ip), vehicle: saline with Tween-80 115 % of control

O=C(C=C(C(F)(F)F)C(F)(F)F)c1ccc(C(=O)C=C(C(F)(F)F)C(F)(F)F)cc1
inactive: [1] 105 % of control | [2] 93 % of control

CC1OC(=O)C(C(C)C)NC(=O)C(C(C)C)OC(=O)C(C(C)C)NC(=O)C(C)OC(=O)C(C(C)C)NC(=O)C(C(C)C)OC(=O)C(C(C)C)NC(=O)C(C)OC(=O)C(C(C)C)NC(=O)C(C(C)C)OC(=O)C(C(C)C)NC1=O (stereo unspecified)
inactive: endpoint: mean survival time, dose: 1.25 mg/kg/injection, schedule: Q01DX009 (ip), vehicle: saline with Tween-80 109 % of control | endpoint: mean survival time, dose: 2.5 mg/kg/injection, schedule: Q01DX009 (ip), vehicle: saline with Tween-80 103 % of control and 107 % of control | endpoint: mean survival time, dose: 5.0 mg/kg/injection, schedule: Q01DX009 (ip), vehicle: saline with Tween-80 103 % of control and 110 % of control | endpoint: mean survival time, dose: 10.0 mg/kg/injection, schedule: Q01DX009 (ip), vehicle: saline with Tween-80 106 % of control | endpoint: mean survival time, dose: 20.0 mg/kg/injection, schedule: Q01DX009 (ip), vehicle: saline with Tween-80 112 % of control

O=C1NC(CN2CCC(O)CC2)C(=O)NC1CN1CCC(O)CC1 (stereo unspecified)
inactive: endpoint: mean survival time, dose: 3.13 mg/kg/injection, schedule: Q01DX009 (ip), vehicle: water 97 % of control | endpoint: mean survival time, dose: 6.25 mg/kg/injection, schedule: Q01DX009 (ip), vehicle: water 95 % of control | endpoint: mean survival time, dose: 12.5 mg/kg/injection, schedule: Q01DX009 (ip), vehicle: water 97 % of control | endpoint: mean survival time, dose: 25.0 mg/kg/injection, schedule: Q01DX009 (ip), vehicle: water 100 % of control | endpoint: mean survival time, dose: 50.0 mg/kg/injection, schedule: Q01DX009 (ip), vehicle: water 100 % of control | endpoint: mean survival time, dose: 100.0 mg/kg/injection, schedule: Q01DX009 (ip), vehicle: water 108 % of control

COc1cc(OC)c(NC(=O)Nc2ccc(N(C)C(C)=O)cc2)cc1Cl
inactive: [3] 88 % of control | [4] 88 % of control | endpoint: mean survival time, dose: 200.0 mg/kg/injection, schedule: Q01DX009 (ip), vehicle: saline with Tween-80 88 % of control

CC(=O)Nc1ccc(C=O)cc1
inactive: [5] 102 % of control | [6] 100 % of control | [7] 100 % of control

Nc1nc(-c2ccc([N+](=O)[O-])cc2)c([N+](=O)[O-])c(=O)[nH]1
inactive: endpoint: mean survival time, dose: 3.13 mg/kg/injection, schedule: Q01DX009 (ip), vehicle: saline with Tween-80 96 % of control | endpoint: mean survival time, dose: 6.25 mg/kg/injection, schedule: Q01DX009 (ip), vehicle: saline with Tween-80 95 % of control | endpoint: mean survival time, dose: 12.5 mg/kg/injection, schedule: Q01DX001 (ip), vehicle: saline with Tween-80 94 % of control | endpoint: mean survival time, dose: 12.5 mg/kg/injection, schedule: Q01DX009 (ip), vehicle: saline with Tween-80 95 % of control

[Cl][Hg][CH2]CN1CCCCC1
inactive: endpoint: mean survival time, dose: 25.0 mg/kg/injection, schedule: Q04DX002 (ip), vehicle: saline with Tween-80 94 % of control | endpoint: mean survival time, dose: 50.0 mg/kg/injection, schedule: Q04DX002 (ip), vehicle: saline with Tween-80 94 % of control | [8] 94 % of control

C=CCN(C(C)=O)c1nnc(N(CC=C)C(C)=O)s1
inactive: endpoint: mean survival time, dose: 100.0 mg/kg/injection, schedule: Q01DX001 (ip), vehicle: saline with Tween-80 100 % of control | endpoint: mean survival time, dose: 200.0 mg/kg/injection, schedule: Q01DX001 (ip), vehicle: saline with Tween-80 100 % of control | endpoint: mean survival time, dose: 400.0 mg/kg/injection, schedule: Q01DX001 (ip), vehicle: saline with Tween-80 100 % of control

COC(=O)C1C=C2c3cccc4[nH]cc(c34)CC2N(C)C1 (stereo unspecified)
inactive: endpoint: mean survival time, dose: 100.0 mg/kg/injection, schedule: Q04DX003 (ip), vehicle: saline sonified 97 % of control | endpoint: mean survival time, dose: 200.0 mg/kg/injection, schedule: Q04DX003 (ip), vehicle: saline sonified 97 % of control | endpoint: mean survival time, dose: 400.0 mg/kg/injection, schedule: Q04DX003 (ip), vehicle: saline sonified 109 % of control

CC(C)NS(=O)(=O)c1ccccc1
inactive: [1] 97 % of control | [2] 96 % of control | [9] 99 % of control

COC(=O)C1(C)CCCC2(C)C3CC4OC4(C(C)C)CC3(O)CCC12 (stereo unspecified)
inactive: [1] 96 % of control | [2] 96 % of control | [9] 98 % of control

CC(C)c1ccc(/C=C2/CCCCC2=O)cc1
inactive: endpoint: mean survival time, dose: 25.0 mg/kg/injection, schedule: Q01DX009 (ip), vehicle: saline with Tween-80 93 % of control | [3] 97 % of control | [4] 97 % of control

COC1OC(C2N(c3ccccc3)CCN2c2ccccc2)=CC(OC(C)=O)C1OC(C)=O (stereo unspecified)
inactive: [1] 97 % of control | [2] 107 % of control | [9] 95 % of control

O=C(O)C1C2CC3OC(=O)C1C3C2 (stereo unspecified)
inactive: [6] 94 % of control | [7] 93 % of control | [10] 96 % of control

OC1(c2cccc(C(F)(F)F)c2)CCN(C2CC2c2ccccc2)CC1 (stereo unspecified)
inactive: [8] 97 % of control | endpoint: mean survival time, dose: 200.0 mg/kg/injection, schedule: Q04DX002 (ip), vehicle: saline with Tween-80 95 % of control

C=C(C)CS(=O)[O-].[C-]#[O+].[C-]#[O+].[Fe+6].[c-]1[c-][c-][cH-][c-]1
inactive: endpoint: mean survival time, dose: 6.25 mg/kg/injection, schedule: Q04DX002 (ip), vehicle: saline 97 % of control | [11] 97 % of control | [12] 97 % of control

CNCCSSCCN
inactive: [3] 95 % of control | [5] 98 % of control | [4] 93 % of control | [6] 93 % of control | [7] 98 % of control | [10] 98 % of control

CCOc1ccc2c(c1)C(C)=CC(C)(C)N2
inactive: [1] 95 % of control | [2] 104 % of control | [9] 91 % of control

CCCCCCNC(=O)Nc1ccc(Cl)c(Cl)c1
inactive: [2] 92 % of control | [9] 93 % of control

CCOC(=O)CCN1CCCC2(C1)OCCO2
inactive: [11] 109 % of control | [12] 95 % of control | endpoint: mean survival time, dose: 50.0 mg/kg/injection, schedule: Q04DX002 (ip), vehicle: saline 98 % of control
